Some test systems named below: A549 NSCLC; A498 renal; MDA-MB-435; HOP-62 NSCLC; U251 CNS; MOLT-4 leukemia; T-47D breast; SN12C renal; HCT-116 colon; MALME-3M melanoma.
Common to all, as to experiment: growth of human tumour cells (NCI), 48 h

Among the data in PubChem BioAssay (NCI) are GI50 and TGI values, retold here.

Structures are written as SMILES.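 Following 48 hours of exposure in 96-well plates, responses at five concentrations were used to interpolate endpoints linearly. Here, GI50 denotes the concentration required for 50% inhibition of growth. The concentration for full growth arrest is given as TGI.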

In the case of `COc1cc(C(=O)N/N=C/c2cccc([N+](=O)[O-])c2)cc(OC)c1OC`, the GI50 in the assay on A549 NSCLC was 8.02 µM; with A498 renal, 1.79 µM; with MDA-MB-435 it was 1.09 µM; with HOP-62 NSCLC it was 18.4 µM; in the assay with U251 CNS, 4.47 µM; in the assay on MOLT-4 leukemia, 3.98 µM. Also, the GI50 with T-47D breast is 35.6 µM; in the assay with SN12C renal, 78.9 µM; in the assay with HCT-116 colon it was 4.09 µM; with MALME-3M melanoma it was 2.75 µM. The TGI in the assay on A549 NSCLC was over 100 µM; in the assay on A498 renal, 7.29 µM; in the assay with MDA-MB-435, 3.88 µM; with HOP-62 NSCLC, over 100 µM; with U251 CNS it was 26.1 µM; in the assay on MOLT-4 leukemia, over 100 µM. The TGI with T-47D breast is over 100 µM; in the assay on SN12C renal it was over 100 µM; in the assay on HCT-116 colon, over 100 µM; with MALME-3M melanoma it was 9.86 µM.
In the case of `CC(C)n1nc(C#Cc2cccc(NC(=O)c3cccc(C(F)(F)F)c3)c2)c2c(N)ncnc21`, the GI50 was 3.29 µM in the assay on A549 NSCLC; 1.07 µM in the assay on A498 renal; 1.67 µM in the assay on MDA-MB-435; 1.11 µM in the assay on HOP-62 NSCLC; 3.05 µM in the assay on U251 CNS; 1.36 µM in the assay on MOLT-4 leukemia. Also, the GI50 with T-47D breast is 3.22 µM; in the assay on SN12C renal it was 1.28 µM; with HCT-116 colon, 0.308 µM; in the assay on MALME-3M melanoma, 0.203 µM. Further, the TGI is 64.4 µM in the assay with A549 NSCLC; 2.51 µM with A498 renal; over 100 µM in the assay on MDA-MB-435; 6.71 µM in the assay with HOP-62 NSCLC; 69.4 µM with U251 CNS; 61.3 µM in the assay on MOLT-4 leukemia. In addition, the TGI with T-47D breast is 17.5 µM; with SN12C renal it was 8.17 µM; in the assay with HCT-116 colon, 3.89 µM; with MALME-3M melanoma, 4.41 µM.
Regarding `C#Cc1ccc(-n2c(/C=C/c3cc(OC)c(OC)c(OC)c3)nc3ncccc3c2=O)cc1`, the GI50 with A549 NSCLC was 5.65 µM; in the assay on A498 renal, 2.63 µM; with MDA-MB-435, 1.98 µM; in the assay with HOP-62 NSCLC it was 13.3 µM; with U251 CNS it was 9.93 µM; in the assay with T-47D breast, 5.85 µM. For the same compound, the values for the GI50 in the assay with SN12C renal, with HCT-116 colon and in the assay on MALME-3M melanoma were 20.5 µM, 5.17 µM and 9.74 µM, respectively. The TGI with A549 NSCLC is over 100 µM; in the assay with A498 renal it was 9.84 µM; with MDA-MB-435, 5.35 µM; with HOP-62 NSCLC, over 100 µM; in the assay on U251 CNS, over 100 µM; with T-47D breast, over 100 µM. Moreover, the TGI is over 100 µM in the assay on SN12C renal, over 100 µM in the assay on HCT-116 colon and 70.5 µM with MALME-3M melanoma.
On to `O=c1[nH]c2cc(O)ccc2n2cc3c(F)cccc3c12`, for which the GI50 was 1.31 µM in the assay on A549 NSCLC; 3.76 µM in the assay with A498 renal; 0.278 µM with MDA-MB-435; 0.847 µM with HOP-62 NSCLC; 2.49 µM in the assay on U251 CNS; 2.16 µM in the assay on MOLT-4 leukemia. Besides, the GI50 was over 100 µM with T-47D breast, 2.57 µM in the assay on SN12C renal, 0.881 µM with HCT-116 colon and 3.96 µM in the assay on MALME-3M melanoma. The TGI in the assay with A549 NSCLC, in the assay on A498 renal, in the assay with MDA-MB-435, in the assay on HOP-62 NSCLC, in the assay on U251 CNS and in the assay on MOLT-4 leukemia was over 100 µM in each case. Also, the TGI with T-47D breast, in the assay with SN12C renal, in the assay on HCT-116 colon and in the assay on MALME-3M melanoma was over 100 µM throughout.
On to `O=C(Nc1ccccc1)Nc1ccccc1CNc1nc(Nc2ccc(OCCN3CCCC3)cc2)ncc1Cl`, for which the GI50 with A549 NSCLC is 5.7 µM; in the assay with A498 renal it was 1.51 µM; with MDA-MB-435, 3.1 µM; in the assay on HOP-62 NSCLC it was 6.96 µM; with U251 CNS it was 1.93 µM; in the assay on MOLT-4 leukemia it was 2.96 µM. In addition, the GI50 in the assay on T-47D breast was 2.75 µM; in the assay with SN12C renal, 2.41 µM; with HCT-116 colon it was 1.75 µM; in the assay on MALME-3M melanoma, 5.51 µM. Besides, the TGI is 21.7 µM with A549 NSCLC; 8.54 µM with A498 renal; 9.58 µM with MDA-MB-435; 21.8 µM with HOP-62 NSCLC; 13.7 µM with U251 CNS; 20 µM with MOLT-4 leukemia. Also, the TGI worked out at 20.8 µM in the assay on T-47D breast, 9.12 µM in the assay on SN12C renal, 7.12 µM in the assay on HCT-116 colon and 12.7 µM with MALME-3M melanoma.
In the case of `CCOC(=O)C1=C(c2ccccc2)N(Cc2ccccc2)C2(O)C=CC(=O)C3C(=O)N(c4ccccc4)C(=O)C132` (configuration not stated), the GI50 in the assay on A549 NSCLC was 2.96 µM; in the assay with A498 renal, 1.62 µM; in the assay with MDA-MB-435, 1.95 µM; with HOP-62 NSCLC, 2.67 µM; in the assay on U251 CNS, 1.51 µM; in the assay with MOLT-4 leukemia it was 1.89 µM. Moreover, the GI50 was 1.67 µM in the assay on T-47D breast, 1.55 µM in the assay on SN12C renal and 1.79 µM with MALME-3M melanoma. The TGI came out at 11.4 µM in the assay with A549 NSCLC; 3.12 µM in the assay on A498 renal; 4.51 µM with MDA-MB-435; 6.56 µM in the assay on HOP-62 NSCLC; 2.93 µM in the assay with U251 CNS; 5.01 µM in the assay with MOLT-4 leukemia. For the same compound, the TGI is 4.44 µM in the assay on T-47D breast, 4.9 µM in the assay on SN12C renal and 3.34 µM in the assay with MALME-3M melanoma.
With `CCCCCCN1C(=O)CN=C1Nc1ccc2cc3ccc(NC4=NCC(=O)N4CCCCCC)cc3nc2c1`, the GI50 was 2.03 µM with A549 NSCLC; 15.9 µM with A498 renal; 1.79 µM in the assay with MDA-MB-435; 1.63 µM in the assay with U251 CNS; 1.71 µM in the assay on T-47D breast; 1.75 µM in the assay on SN12C renal. In addition, the GI50 in the assay with HCT-116 colon was 1.19 µM; in the assay with MALME-3M melanoma, 1.71 µM. Moreover, the TGI in the assay on A549 NSCLC came to 3.96 µM; in the assay with A498 renal, 32.6 µM; with MDA-MB-435, 3.77 µM; with U251 CNS it was 3.13 µM; in the assay with T-47D breast, 4.97 µM; with SN12C renal, 3.45 µM. The TGI was 2.48 µM with HCT-116 colon and 3.59 µM in the assay with MALME-3M melanoma.
